Test results taken from patent publication US11098063B2, “Diazabicyclic substituted imidazopyrimidines and their use for the treatment of breathing disorders” (Bayer Aktiengesellschaft, priority 2017, dated 2021).

Assays:
human TASK-3 = human TASK-3 (Homo sapiens (Human), UniProt Q9NPC2); assay: Inhibition of recombinant TASK-3 in stably transfected CHO cells (voltage-sensitive dye, KCl depolarization); type: cell-based; conditions: depolarization by 40 mM potassium chloride
Protocol: (§1) B-2. Inhibition of Recombinant TASK-1 and TASK-3 In Vitro
(§2) The investigations on the inhibition of the recombinant TASK-1 and TASK-3 channels were conducted using stably transfected CHO cells. The compounds according to the invention were tested in this case by application of 40 mM potassium chloride in the presence of a voltage-sensitive dye according to the method described in detail in the following references [Whiteaker et al., Validation of FLIPR membrane potential dye for high-throughput screening of potassium channel modulators, J. Biomol. Screen. 6 (5), 305-312 (2001); Molecular Devices FLIPR Application Note: Measuring membrane potential using the FLIPR® membrane potential assay kit on Fluorometric Imaging Plate Reader (FLIPR®) systems, http://www.moleculardevices.com/reagents-supplies/assay-kits/ion-channels/flipr-membrane-potential-assay-kits]. The activity of the test substances was determined as their ability to inhibit a depolarization induced in the recombinant cells by 40 mM potassium chloride. The concentration which can block half of this depolarization is referred to as IC50.

human TASK-1 = human TASK-1 (Homo sapiens (Human), UniProt O14649); assay: Inhibition of recombinant TASK-1 in stably transfected CHO cells (voltage-sensitive dye, KCl depolarization); type: cell-based; conditions: depolarization by 40 mM potassium chloride
Chain of human TASK-1 (O14649 whole entry): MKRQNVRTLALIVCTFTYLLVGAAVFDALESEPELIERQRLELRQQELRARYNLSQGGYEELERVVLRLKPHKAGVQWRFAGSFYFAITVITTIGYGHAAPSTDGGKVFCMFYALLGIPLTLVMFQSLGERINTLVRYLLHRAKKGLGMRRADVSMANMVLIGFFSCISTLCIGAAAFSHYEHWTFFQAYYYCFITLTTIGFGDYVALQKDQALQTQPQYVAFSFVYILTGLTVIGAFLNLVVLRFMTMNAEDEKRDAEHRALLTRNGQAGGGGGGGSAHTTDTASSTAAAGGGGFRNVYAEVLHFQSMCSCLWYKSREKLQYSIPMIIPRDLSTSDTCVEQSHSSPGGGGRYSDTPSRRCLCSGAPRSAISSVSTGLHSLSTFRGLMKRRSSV
Protocol: as §1, §2

Chain of human TASK-3 (Q9NPC2 whole entry): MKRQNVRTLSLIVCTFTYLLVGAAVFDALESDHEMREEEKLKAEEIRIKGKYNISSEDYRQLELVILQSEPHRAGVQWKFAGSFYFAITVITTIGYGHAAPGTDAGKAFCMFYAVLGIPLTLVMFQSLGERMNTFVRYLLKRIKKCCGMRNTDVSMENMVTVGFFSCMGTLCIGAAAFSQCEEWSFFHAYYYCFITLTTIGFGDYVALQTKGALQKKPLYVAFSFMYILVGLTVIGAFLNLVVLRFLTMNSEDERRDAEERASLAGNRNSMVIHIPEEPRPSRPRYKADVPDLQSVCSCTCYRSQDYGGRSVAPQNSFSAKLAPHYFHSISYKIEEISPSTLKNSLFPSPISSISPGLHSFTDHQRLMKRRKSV

Structure (SMILES)	IC50 (human TASK-3) [nM]	IC50 (human TASK-1) [nM]
Cc1cccc(C)c1NC(=O)N1C2CCC1CN(Cc1c(-c3ccc(Cl)cc3)nc3ncccn13)C2 [Example 92, 3-{[2-(4-chlorophenyl)imidazo[1,2-a]pyrimidin-3-yl]methyl}-N-(2,6-dimethylphenyl)-3,8-diazabicyclo[3.2.1]octane-8-carboxamide]	270	15000
O=C(c1ccccc1F)N1C2CCC1CN(Cc1c(-c3ccc(Cl)cc3)nc3ncccn13)C2 [Example 32]	29	370
O=C(C1CCCC1)N1C2CCC1CN(Cc1c(-c3ccc(C4CC4)cc3)nc3ncccn13)C2 [Example 134, cyclopentyl(3-{[2-(4-cyclopropylphenyl)imidazo[1,2-a]pyrimidin-3-yl]methyl}-3,8-diazabicyclo[3.2.1]octan-8-yl)methanone]	97	770
COc1cccc(C(=O)N2C3COCC2CN(Cc2c(-c4ccc(C(C)C)cc4)nc4ncccn24)C3)n1 [Example 66]	20	3700
CC(C)(C)OC(=O)N1CC2CCC1CN2Cc1c(-c2ccc(Cl)cc2)nc2ncccn12 (single isomer, unassigned) [Example 4, tert-Butyl 5-{[2-(4-chlorophenyl)imidazo[1,2-a]pyrimidin-3-yl]methyl}-2,5-diazabicyclo[2.2.2]octane-2-carboxylate]	97	470
CN(C(=O)N1C2CCC1CN(Cc1c(-c3ccc(Cl)cc3)nc3ncccn13)C2)c1ccccc1 [Example 108, 3-{[2-(4-chlorophenyl)imidazo[1,2-a]pyrimidin-3-yl]methyl}-N-methyl-N-phenyl-3,8-diazabicyclo[3.2.1]octane-8-carboxamide]	90	7000
CC(C)c1ccc(-c2nc3ncccn3c2CN2CC3CCC2CN3C(=O)c2cccc(OC(F)F)n2)cc1 (stereo not shown) [Example 76]	56	13000
CCN(CC)C(=O)N1C2CCC1CN(Cc1c(-c3ccc(Cl)cc3)nc3ncccn13)C2 [Example 109, 3-{[2-(4-chlorophenyl)imidazo[1,2-a]pyrimidin-3-yl]methyl}-N,N-diethyl-3,8-diazabicyclo[3.2.1]octane-8-carboxamide]	1.5	24
O=C(Nc1ccc(SC(F)(F)F)cc1)N1C2CCC1CN(Cc1c(-c3ccc(Cl)cc3)nc3ncccn13)C2 [Example 103, 3-{[2-(4-chlorophenyl)imidazo[1,2-a]pyrimidin-3-yl]methyl}-N-{4-[(trifluoromethyl)sulfanyl]phenyl}-3,8-diazabicyclo[3.2.1]octane-8-carboxamide]	690	30000
CC(c1c(-c2ccc(Cl)cc2)nc2ncccn12)N1CC2CCC(C1)N2C(=O)OC(C)(C)C (racemic) [Example 10, tert-Butyl 3-{1-[2-(4-chlorophenyl)imidazo[1,2-a]pyrimidin-3-yl]ethyl}-3,8-diazabicyclo[3.2.1]octane-8-carboxylate]	130	2200
COc1ccc(F)c(C(=O)N2C3CCC2CN(Cc2c(-c4ccc(Br)cc4)nc4ncccn24)C3)n1 [Example 82]	37	670
O=C(c1ccccc1F)N1CC2CCC1CN2Cc1c(-c2ccc(Cl)cc2)nc2ncccn12 (stereo not shown) [Example 42]	340	1000
COc1ccc(C)c(C(=O)N2CC3CCC2CN3Cc2c(-c3ccc(Cl)cc3)nc3ncccn23)n1 (single isomer, unassigned) [Example 25, (5-{[2-(4-Chlorophenyl)imidazo[1,2-a]pyrimidin-3-yl]methyl}-2,5-diazabicyclo[2.2.2]oct-2-yl)(6-methoxy-3-methylpyridin-2-yl)methanone]	71	1100
COc1cccc(C(=O)N2C3COCC2CN(Cc2c(-c4ccc(Cl)cc4)nc4ncccn24)C3)c1 [Example 31]	140	7100
O=C(c1csc(C(F)(F)F)n1)N1C2CCC1CN(Cc1c(-c3ccc(Cl)cc3)nc3ncccn13)C2 [Example 58]	17	1600
CC(C)N(C)C(=O)N1C2CCC1CN(Cc1c(-c3ccc(Cl)cc3)nc3ncccn13)C2 [Example 115, 3-{[2-(4-chlorophenyl)imidazo[1,2-a]pyrimidin-3-yl]methyl}-N-isopropyl-N-methyl-3,8-diazabicyclo[3.2.1]octane-8-carboxamide]	330	7400
COc1ccc(F)c(C(=O)N2CC3CCC2CN3Cc2c(-c3ccc(C(C)C)cc3)nc3ncccn23)n1 (stereo not shown) [Example 71]	110	14000
CC(C)c1ccc(-c2nc3ncccn3c2CN2CC3CCC(C2)N3C(=O)c2ncoc2C2CC2)cc1 [Example 131, (5-Cyclopropyl-1,3-oxazol-4-yl)(3-{[2-(4-isopropylphenyl)imidazo[1,2-a]pyrimidin-3-yl]methyl}-3,8-diazabicyclo[3.2.1]oct-8-yl)methanone]	410	3500
CC(C)c1ccc(-c2nc3ncccn3c2CN2CC3CCC2CN3C(=O)c2cccc(OC(F)F)n2)cc1 (stereo not shown) [Example 75]	51	3800

Structure (SMILES)	IC50 (human TASK-3) [nM]	IC50 (human TASK-1) [nM]
COc1nc(C(F)(F)F)c(C(=O)N2C3CCC2CN(Cc2c(-c4ccc(Cl)cc4)nc4ncccn24)C3)s1 [Example 57]	57	6400
COc1cccc(C(=O)N2C3COCC2CN(Cc2c(-c4ccc(Cl)cc4)nc4ncccn24)C3)n1 [Example 13, (7-{[2-(4-Chlorophenyl)imidazo[1,2-a]pyrimidin-3-yl]methyl}-3-oxa-7,9-diazabicyclo[3.3.1]non-9-yl)(6-methoxypyridin-2-yl)methanone]	33	1500
CC(C)NC(=O)N1C2CCC1CN(Cc1c(-c3ccc(Cl)cc3)nc3ncccn13)C2 [Example 86, 3-{[2-(4-chlorophenyl)imidazo[1,2-a]pyrimidin-3-yl]methyl}-N-isopropyl-3,8-diazabicyclo[3.2.1]octane-8-carboxamide]	430	7700
CC(C)c1ccc(-c2nc3ncccn3c2CN2CC3COCC(C2)N3C(=O)c2ccccc2F)cc1 [Example 68]	87	9400
O=C(c1cncs1)N1C2CCC1CN(Cc1c(-c3ccc(Cl)cc3)nc3ncccn13)C2 [Example 55]	170	2900
CC(C)CNC(=O)N1C2CCC1CN(Cc1c(-c3ccc(Cl)cc3)nc3ncccn13)C2 [Example 101, 3-{[2-(4-Chlorophenyl)imidazo[1,2-a]pyrimidin-3-yl]methyl}-N-isobutyl-3,8-diazabicyclo[3.2.1]octane-8-carboxamide]	510	19000
COc1ccc(F)c(C(=O)N2CC3CCC2CN3Cc2c(-c3ccc(C(C)C)cc3)nc3ncccn23)n1 (stereo not shown) [Example 72]	29	2100
COc1ccc(Cl)c(C(=O)N2CC3CCC2CN3Cc2c(-c3ccc(C(C)C)cc3)nc3ncccn23)n1 (stereo not shown) [Example 69]	22	2800
O=C(c1ccccc1F)N1C2CCC1CN(Cc1c(-c3ccc(C4CC4)cc3)nc3ncccn13)C2 [Example 133, (3-{[2-(4-cyclopropylphenyl)imidazo[1,2-a]pyrimidin-3-yl]methyl}-3,8-diazabicyclo[3.2.1]octan-8-yl)(2-fluorophenyl)methanone]	180	1600
O=C(Nc1ccccc1F)N1C2CCC1CN(Cc1c(-c3ccc(Cl)cc3)nc3ncccn13)C2 [Example 93, 3-{[2-(4-chlorophenyl)imidazo[1,2-a]pyrimidin-3-yl]methyl}-N-(2-fluorophenyl)-3,8-diazabicyclo[3.2.1]octane-8-carboxamide]	260	12000
Cc1nc(C)c(C(=O)N2C3CCC2CN(Cc2c(-c4ccc(Cl)cc4)nc4ncccn24)C3)o1 [Example 50]	430	3300
O=C(c1ccccc1F)N1CC2CCC1CN2Cc1c(-c2ccc(Cl)cc2)nc2ncccn12 (stereo not shown) [Example 39]	160	1400
Cc1nc(C(=O)N2C3CCC2CN(Cc2c(-c4ccc(Cl)cc4)nc4ncccn24)C3)c(C)o1 [Example 56]	54	5600
COC(=O)N1C2CCC1CN(Cc1c(-c3ccc(Cl)cc3)nc3ncccn13)C2 [Example 123, methyl 3-{[2-(4-chlorophenyl)imidazo[1,2-a]pyrimidin-3-yl]methyl}-3,8-diazabicyclo[3.2.1]octane-8-carboxylate]	230	14000
COc1cccc(C(=O)N2CC3CCC2CN3Cc2c(-c3ccc(Cl)cc3)nc3ncccn23)n1 (stereo not shown) [Example 44]	190	1000
COc1cccc(C(=O)N2C3CCC2CN(Cc2c(-c4ccc(Cl)cc4)nc4ncccn24)C3)c1 [Example 36]	80	310
COc1ccc(Cl)c(C(=O)N2C3CCC2CN(Cc2c(-c4ccc(C5CC5)cc4)nc4ncccn24)C3)n1 [Example 136, (3-chloro-6-methoxypyridin-2-yl)(3-{[2-(4-cyclopropylphenyl)imidazo[1,2-a]pyrimidin-3-yl]methyl}-3,8-diazabicyclo[3.2.1]octan-8-yl)methanone]	41	320
COc1ccc(Cl)c(C(=O)N2C3COCC2CN(Cc2c(-c4ccc(C(C)C)cc4)nc4ncccn24)C3)n1 [Example 67]	17	1200
CSc1cccc(C(=O)N2C3CCC2CN(Cc2c(-c4ccc(Cl)cc4)nc4ncccn24)C3)n1 [Example 33]	130	190
